Assays:
[1] = Ratio of drug uptake in pons to cerebellum in anesthetized cynomolgus monkey after 105 mins postinjection; type: ADME, organism-based, Macaca fascicularis; conditions: in vivo, 1.75 h
[2] = Ratio of drug uptake in pons to cerebellum in anesthetized cynomolgus monkey after 215 mins postinjection; type: ADME, organism-based, Macaca fascicularis; conditions: in vivo
[3] = Drug uptake in anesthetized cynomolgus monkey brain occipital lobe after 125 mins postinjection; type: ADME, organism-based, Macaca fascicularis; conditions: in vivo
[4] = Drug uptake in anesthetized cynomolgus monkey brain frontal lobe after 27.5 mins postinjection; type: ADME, organism-based, Macaca fascicularis; conditions: in vivo
[5] = Drug uptake in anesthetized cynomolgus monkey brain frontal lobe after 35 mins postinjection; type: ADME, organism-based, Macaca fascicularis; conditions: in vivo
[6] = Drug uptake in anesthetized cynomolgus monkey brain frontal lobe after 215 mins postinjection; type: ADME, organism-based, Macaca fascicularis; conditions: in vivo
[7] = Drug uptake in anesthetized cynomolgus monkey brain frontal lobe after 225 mins postinjection; type: ADME, organism-based, Macaca fascicularis; conditions: in vivo, 3.75 h
[8] = Ratio of drug uptake in midbrain to cerebellum in anesthetized cynomolgus monkey after 185 mins postinjection; type: ADME, organism-based, Macaca fascicularis; conditions: in vivo
[9] = Ratio of drug uptake in occipital lobe to cerebellum in anesthetized cynomolgus monkey after 125 mins postinjection; type: ADME, organism-based, Macaca fascicularis; conditions: in vivo
Putamen [10] = assay: Drug uptake in anesthetized cynomolgus monkey brain putamen after 175 mins postinjection; type: ADME, organism-based, Macaca fascicularis; conditions: in vivo
Thalamus [11] = assay: Drug uptake in anesthetized cynomolgus monkey brain thalamus after 0.5 mins postinjection; type: ADME, organism-based, Macaca fascicularis; conditions: in vivo
[12] = Ratio of drug uptake in frontal lobe to cerebellum in anesthetized cynomolgus monkey after 35 mins postinjection; type: ADME, organism-based, Macaca fascicularis; conditions: in vivo
Pons [13] = assay: Drug uptake in anesthetized cynomolgus monkey brain pons after 0.5 mins postinjection; type: ADME, organism-based, Macaca fascicularis; conditions: in vivo
Pons [14] = assay: Drug uptake in anesthetized cynomolgus monkey brain pons after 27.5 mins postinjection; type: ADME, organism-based, Macaca fascicularis; conditions: in vivo
Pons [15] = assay: Drug uptake in anesthetized cynomolgus monkey brain pons after 105 mins postinjection; type: ADME, organism-based, Macaca fascicularis; conditions: in vivo, 1.75 h
Thalamus [16] = assay: Drug uptake in anesthetized cynomolgus monkey brain thalamus after 195 mins postinjection; type: ADME, organism-based, Macaca fascicularis; conditions: in vivo, 3.25 h
Pons [17] = assay: Drug uptake in anesthetized cynomolgus monkey brain pons after 205 mins postinjection; type: ADME, organism-based, Macaca fascicularis; conditions: in vivo
Medulla [18] = assay: Drug uptake in anesthetized cynomolgus monkey brain medulla after 195 mins postinjection; type: ADME, organism-based, Macaca fascicularis; conditions: in vivo, 3.25 h
Medulla [19] = assay: Drug uptake in anesthetized cynomolgus monkey brain medulla after 205 mins postinjection; type: ADME, organism-based, Macaca fascicularis; conditions: in vivo
Putamen [20] = assay: Drug uptake in anesthetized cynomolgus monkey brain putamen after 195 mins postinjection; type: ADME, organism-based, Macaca fascicularis; conditions: in vivo, 3.25 h
Medulla [21] = assay: Drug uptake in anesthetized cynomolgus monkey brain medulla after 4.5 mins postinjection; type: ADME, organism-based, Macaca fascicularis; conditions: in vivo, 0.075 h
Medulla [22] = assay: Drug uptake in anesthetized cynomolgus monkey brain medulla after 15.5 mins postinjection; type: ADME, organism-based, Macaca fascicularis; conditions: in vivo
Medulla [23] = assay: Drug uptake in anesthetized cynomolgus monkey brain medulla after 45 mins postinjection; type: ADME, organism-based, Macaca fascicularis; conditions: in vivo, 0.75 h
[24] = Ratio of drug uptake in caudate to cerebellum in anesthetized cynomolgus monkey after 225 mins postinjection; type: ADME, organism-based, Macaca fascicularis; conditions: in vivo, 3.75 h
Medulla [25] = assay: Drug uptake in anesthetized cynomolgus monkey brain medulla after 145 mins postinjection; type: ADME, organism-based, Macaca fascicularis; conditions: in vivo
Medulla [26] = assay: Drug uptake in anesthetized cynomolgus monkey brain medulla after 155 mins postinjection; type: ADME, organism-based, Macaca fascicularis; conditions: in vivo
[27] = Ratio of drug uptake in putamen to cerebellum in anesthetized cynomolgus monkey after 155 mins postinjection; type: ADME, organism-based, Macaca fascicularis; conditions: in vivo
[28] = Drug uptake in anesthetized cynomolgus monkey brain cerebellum after 22.5 mins postinjection; type: ADME, organism-based, Macaca fascicularis; conditions: in vivo, 0.375 h
Caudate [29] = assay: Drug uptake in anesthetized cynomolgus monkey brain caudate after 6.5 mins postinjection; type: ADME, organism-based, Macaca fascicularis, Caudate nucleus; conditions: in vivo
Caudate [30] = assay: Drug uptake in anesthetized cynomolgus monkey brain caudate after 9.5 mins postinjection; type: ADME, organism-based, Macaca fascicularis, Caudate nucleus; conditions: in vivo
Caudate [31] = assay: Drug uptake in anesthetized cynomolgus monkey brain caudate after 27.5 mins postinjection; type: ADME, organism-based, Macaca fascicularis, Caudate nucleus; conditions: in vivo
Caudate [32] = assay: Drug uptake in anesthetized cynomolgus monkey brain caudate after 105 mins postinjection; type: ADME, organism-based, Macaca fascicularis, Caudate nucleus; conditions: in vivo, 1.75 h
Caudate [33] = assay: Drug uptake in anesthetized cynomolgus monkey brain caudate after 135 mins postinjection; type: ADME, organism-based, Macaca fascicularis, Caudate nucleus; conditions: in vivo, 2.25 h
Caudate [34] = assay: Drug uptake in anesthetized cynomolgus monkey brain caudate after 155 mins postinjection; type: ADME, organism-based, Macaca fascicularis, Caudate nucleus; conditions: in vivo
Thalamus [35] = assay: Drug uptake in anesthetized cynomolgus monkey brain thalamus after 12.5 mins postinjection; type: ADME, organism-based, Macaca fascicularis; parameters: unit not given here; conditions: in vivo
Thalamus [36] = assay: Drug uptake in anesthetized cynomolgus monkey brain thalamus after 18.5 mins postinjection; type: ADME, organism-based, Macaca fascicularis; parameters: unit not given here; conditions: in vivo
Thalamus [37] = assay: Drug uptake in anesthetized cynomolgus monkey brain thalamus after 35 mins postinjection; type: ADME, organism-based, Macaca fascicularis; parameters: unit not given here; conditions: in vivo
Putamen [38] = assay: Drug uptake in anesthetized cynomolgus monkey brain putamen after 15.5 mins postinjection; type: ADME, organism-based, Macaca fascicularis; parameters: unit not given here; conditions: in vivo
Putamen [39] = assay: Drug uptake in anesthetized cynomolgus monkey brain putamen after 18.5 mins postinjection; type: ADME, organism-based, Macaca fascicularis; parameters: unit not given here; conditions: in vivo
Putamen [40] = assay: Drug uptake in anesthetized cynomolgus monkey brain putamen after 95 mins postinjection; type: ADME, organism-based, Macaca fascicularis; parameters: unit not given here; conditions: in vivo
Putamen [41] = assay: Drug uptake in anesthetized cynomolgus monkey brain putamen after 105 mins postinjection; type: ADME, organism-based, Macaca fascicularis; parameters: unit not given here; conditions: in vivo, 1.75 h
Thalamus [42] = assay: Drug uptake in anesthetized cynomolgus monkey brain thalamus after 65 mins postinjection; type: ADME, organism-based, Macaca fascicularis; parameters: unit not given here; conditions: in vivo
Thalamus [43] = assay: Drug uptake in anesthetized cynomolgus monkey brain thalamus after 75 mins postinjection; type: ADME, organism-based, Macaca fascicularis; parameters: unit not given here; conditions: in vivo, 1.25 h
Midbrain [44] = assay: Drug uptake in anesthetized cynomolgus monkey brain midbrain after 0.5 mins postinjection; type: ADME, organism-based, Macaca fascicularis; parameters: unit not given here; conditions: in vivo
Midbrain [45] = assay: Drug uptake in anesthetized cynomolgus monkey brain midbrain after 12.5 mins postinjection; type: ADME, organism-based, Macaca fascicularis; parameters: unit not given here; conditions: in vivo
Midbrain [46] = assay: Drug uptake in anesthetized cynomolgus monkey brain midbrain after 35 mins postinjection; type: ADME, organism-based, Macaca fascicularis; parameters: unit not given here; conditions: in vivo
Midbrain [47] = assay: Drug uptake in anesthetized cynomolgus monkey brain midbrain after 85 mins postinjection; type: ADME, organism-based, Macaca fascicularis; parameters: unit not given here; conditions: in vivo
Midbrain [48] = assay: Drug uptake in anesthetized cynomolgus monkey brain midbrain after 95 mins postinjection; type: ADME, organism-based, Macaca fascicularis; parameters: unit not given here; conditions: in vivo
[49] = Ratio of drug uptake in pons to cerebellum in anesthetized cynomolgus monkey after 85 mins postinjection; type: ADME, organism-based, Macaca fascicularis; conditions: in vivo
[50] = Ratio of drug uptake in medulla to cerebellum in anesthetized cynomolgus monkey after 65 mins postinjection; type: ADME, organism-based, Macaca fascicularis; conditions: in vivo
Pons [51] = assay: Drug uptake in anesthetized cynomolgus monkey brain pons after 175 mins postinjection; type: ADME, organism-based, Macaca fascicularis; conditions: in vivo
[52] = Octanol-water partition coefficient, log P at pH 7.4 by shake-flask method; type: physicochemical
[53] = Ratio of drug uptake in thalamus to cerebellum in anesthetized cynomolgus monkey after 135 mins postinjection; type: ADME, organism-based, Macaca fascicularis; conditions: in vivo, 2.25 h
[54] = Ratio of drug uptake in occipital lobe to cerebellum in anesthetized cynomolgus monkey after 0.5 mins postinjection; type: ADME, organism-based, Macaca fascicularis; conditions: in vivo

O=C(OCC[18F])C1C2CCC(CC1c1ccc(/C=C\I)cc1)N2 (stereo not drawn)
Ratio [1]: 1.8
Ratio [2]: 2.9
Drug uptake [3]: 2.24
Drug uptake [4]: 1.76
Drug uptake [5]: 1.86
Drug uptake [6]: 1.6
Drug uptake [7]: 1.56
Ratio [8]: 3.5
Ratio [9]: 1.3
Drug uptake (Putamen [10]): 3.1
Drug uptake (Thalamus [11]): 0
Ratio [12]: 0.7
Drug uptake (Pons [13]): 0
Drug uptake (Pons [14]): 2.58
Drug uptake (Pons [15]): 3.4
Drug uptake (Thalamus [16]): 3.67
Drug uptake (Pons [17]): 3.34
Drug uptake (Medulla [18]): 3.41
Drug uptake (Medulla [19]): 3.32
Drug uptake (Putamen [20]): 4.01
Drug uptake (Medulla [21]): 1.36
Drug uptake (Medulla [22]): 2.67
Drug uptake (Medulla [23]): 3.69
Ratio [24]: 2.5
Drug uptake (Medulla [25]): 3.61
Drug uptake (Medulla [26]): 3.73
Ratio [27]: 2.8
Drug uptake [28]: 2.63
Drug uptake (Caudate [29]): 1.13
Drug uptake (Caudate [30]): 1.47
Drug uptake (Caudate [31]): 2.17
Drug uptake (Caudate [32]): 3.13
Drug uptake (Caudate [33]): 3.1
Drug uptake (Caudate [34]): 3.03
Drug uptake (Thalamus [35]): 2.29
Drug uptake (Thalamus [36]): 2.7
Drug uptake (Thalamus [37]): 3.31
Drug uptake (Putamen [38]): 2.71
Drug uptake (Putamen [39]): 2.87
Drug uptake (Putamen [40]): 4.36
Drug uptake (Putamen [41]): 4.34
Drug uptake (Thalamus [42]): 3.92
Drug uptake (Thalamus [43]): 4.02
Drug uptake (Midbrain [44]): 0
Drug uptake (Midbrain [45]): 2.38
Drug uptake (Midbrain [46]): 3.51
Drug uptake (Midbrain [47]): 4.42
Drug uptake (Midbrain [48]): 4.6

O=C(OCC[18F])C1C2CCC(CC1c1cccc(/C=C\I)c1)N2 (stereo not drawn)
Ratio [49]: 1.1
Ratio [1]: 1.3
Ratio [50]: 1.2
Drug uptake [3]: 1.97
Drug uptake [4]: 2.82
Drug uptake [5]: 2.89
Drug uptake [6]: 1.51
Drug uptake [7]: 1.45
Drug uptake (Putamen [10]): 2.93
Drug uptake (Thalamus [11]): 0
Ratio [12]: 0.7
Drug uptake (Pons [13]): 0
Drug uptake (Pons [14]): 3.21
Drug uptake (Pons [15]): 3.01
Drug uptake (Pons [51]): 2.36
Drug uptake (Medulla [21]): 1.8
Drug uptake (Medulla [22]): 3.53
Drug uptake (Medulla [23]): 4
Drug uptake (Medulla [25]): 3.04
Drug uptake (Medulla [26]): 2.98
logD [52]: 1.69
Ratio [27]: 1.8
Drug uptake [28]: 4.02
Ratio [53]: 1.8
Drug uptake (Caudate [29]): 2.02
Drug uptake (Caudate [30]): 2.5
Drug uptake (Caudate [31]): 3.39
Drug uptake (Caudate [32]): 3.33
Drug uptake (Caudate [33]): 2.87
Drug uptake (Caudate [34]): 2.62
Ratio [54]: 0.8
Drug uptake (Thalamus [35]): 3.32
Drug uptake (Thalamus [36]): 3.7
Drug uptake (Thalamus [37]): 4.2
Drug uptake (Putamen [38]): 3.61
Drug uptake (Putamen [39]): 3.78
Drug uptake (Putamen [40]): 4.02
Drug uptake (Putamen [41]): 3.88
Drug uptake (Thalamus [42]): 4.26
Drug uptake (Thalamus [43]): 4.16
Drug uptake (Midbrain [44]): 0
Drug uptake (Midbrain [45]): 3.95
Drug uptake (Midbrain [46]): 4.85
Drug uptake (Midbrain [47]): 4.67
Drug uptake (Midbrain [48]): 4.55

From ChEMBL document CHEMBL1151757, “Synthesis, radiosynthesis, and biological evaluation of fluorine-18-labeled 2beta-carbo(fluoroalkoxy)-3beta-(3'-((Z)-2-haloethenyl)phenyl)nortropanes: candidate radioligands for in vivo imaging of the serotonin transporter with positron emission tomography” (J Med Chem, 2008)
